One experiment deals with HBV viral load (viral production from HepAD38 cells). Nature of the experiment: Activity of test compounds on viral production from HepAD38 cells (viral load by qPCR of HBV core sequence). It counts as cell-based. The conditions noted are these: Hepatitis B virus, HePAD38, 120 h, viral load lowering, 5 days, qPCR of supernatant, read-out: VL HepAD38 EC50 range. The method in brief: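 EC50 and CC50 come from four-parameter logistic fits: HBV core DNA in supernatant by TaqMan qPCR against DNA standards, normalised to DMSO controls, and cell viability by CellTiter-Glo. Cells were plated at 50,000/well without tetracycline (2% FBS) and exposed to compounds (highest 10 μM) for 5 days, 37 °C.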
In general terms: Real-time PCR tracks product formation cycle by cycle.
`Cn1cnc(C2CC3CC(O)(c4cc(C#N)nn4C)CC3C2)c1C(=O)Nc1ccc(F)c(Cl)c1` (centres unmarked) [Example 57, N-(3-Chloro-4-fluorophenyl)-4-(5-(3-cyano-1-methyl-1H-pyrazol-5-yl)-5-hydroxyoctahydropentalen-2-yl)-1-methyl-1H-imidazole-5-carboxamide]: the EC50 is less than 10 nM.

For the compound `Cn1cnc(C2CC3CC(O)(CO)CC3C2)c1C(=O)Nc1ccc(F)c(Cl)c1` (single isomer, unassigned) [Example 19, N-(3-Chloro-4-fluorophenyl)-4-(5-hydroxy-5-(hydroxymethyl)octahydro-pentalen-2-yl)-1-methyl-1H-imidazole-5-carboxamide], the EC50 is less than 10 nM.

Consider `CC(O)c1nn(C)cc1C1(O)CC2CC(c3ncn(C)c3C(=O)Nc3ccc(F)c(Cl)c3)CC2C1` (single isomer, unassigned) [Example 188, N-(3-Chloro-4-fluorophenyl)-4-(5-hydroxy-5-(3-(1-hydroxyethyl)-1-methyl-1H-pyrazol-4-yl)octahydropentalen-2-yl)-1-methyl-1H-imidazole-5-carboxamide], for which the concentration for a half-maximal effect (EC50) is less than 10 nM.

For the compound `CN1CCN(C2CC3CC(c4ncn(C)c4C(=O)Nc4ccc(F)c(Cl)c4)CC3C2)CC1` (centres unmarked) [Example 18, N-(3-Chloro-4-fluorophenyl)-1-methyl-4-(5-(4-methylpiperazin-1-yl)octahydropentalen-2-yl)-1H-imidazole-5-carboxamide], the concentration giving a half-maximal response (EC50) lay in the range of 10 to 50 nM.

For the compound `Cn1cnc(C2CC3CC(CC(N)=O)CC3C2)c1C(=O)Nc1ccc(F)c(Cl)c1` (centres unmarked) [Example 17, 4-(5-(2-Amino-2-oxoethyl)octahydropentalen-2-yl)-N-(3-chloro-4-fluorophenyl)-1-methyl-1H-imidazole-5-carboxamide], the concentration giving a half-maximal response (EC50) was less than 10 nM.

On to `Cn1cnc(C2CC3CC(O)(c4c(C#N)cnn4C)CC3C2)c1C(=O)Nc1ccc(F)c(Cl)c1` (centres unmarked) [Example 125, N-(3-chloro-4-fluorophenyl)-4-(5-(4-cyano-1-methyl-1H-pyrazol-5-yl)-5-hydroxyoctahydropentalen-2-yl)-1-methyl-1H-imidazole-5-carboxamide], for which the 50% effective concentration (EC50) is less than 10 nM.

With `Cn1cnc(C2CC3CC(O)(c4cc(C(F)(F)F)n[nH]4)CC3C2)c1C(=O)Nc1ccc(F)c(Cl)c1` (centres unmarked) [Example 179, N-(3-Chloro-4-fluorophenyl)-4-(5-hydroxy-5-(3-(trifluoromethyl)-1H-pyrazol-5-yl)octahydropentalen-2-yl)-1-methyl-1H-imidazole-5-carboxamide], the EC50 was less than 10 nM.

As for `Cn1cc(C2(O)CC3CC(c4ncn(C)c4C(=O)Nc4ccc(F)c(Cl)c4)CC3C2)c(C(O)CO)n1` (centres unmarked) [Example 190, N-(3-Chloro-4-fluorophenyl)-4-(5-(3-(1,2-dihydroxyethyl)-1-methyl-1H-pyrazol-4-yl)-5-hydroxyoctahydropentalen-2-yl)-1-methyl-1H-imidazole-5-carboxamide], the EC50 is less than 10 nM.

`CC(C)n1nc(N)c(Cl)c1C1(O)CC2CC(c3ncn(C)c3C(=O)Nc3ccc(F)c(Cl)c3)CC2C1` (centres unmarked) [Example 102, 4-(5-(3-amino-4-chloro-1-isopropyl-1H-pyrazol-5-yl)-5-hydroxyoctahydropentalen-2-yl)-N-(3-chloro-4-fluorophenyl)-1-methyl-1H-imidazole-5-carboxamide]: the 50% effective concentration (EC50) was less than 10 nM.

On to `Cc1nn(C)c(C2(O)CC3CC(c4ncn(C)c4C(=O)Nc4ccc(F)c(Cl)c4)CC3C2)c1F` (centres unmarked) [Example 92, N-(3-chloro-4-fluorophenyl)-4-(5-(4-fluoro-1,3-dimethyl-1H-pyrazol-5-yl)-5-hydroxyoctahydropentalen-2-yl)-1-methyl-1H-imidazole-5-carboxamide], for which the concentration giving a half-maximal response (EC50) was less than 10 nM.

On to `Cn1cnc(C2CC3CC(O)(c4cnn(C)c4C(F)(F)F)CC3C2)c1C(=O)Nc1ccc(F)c(Cl)c1` (centres unmarked) [Example 141, N-(3-Chloro-4-fluorophenyl)-4-(5-hydroxy-5-(1-methyl-5-(trifluoromethyl)-1H-pyrazol-4-yl)octahydropentalen-2-yl)-1-methyl-1H-imidazole-5-carboxamide], for which the concentration giving a half-maximal response (EC50) was less than 10 nM.

As to `Cn1cnc(C2CC3CC(O)(c4cc(OCC(O)CO)nn4C)CC3C2)c1C(=O)Nc1ccc(F)c(Cl)c1` (single isomer, unassigned) [Example 205, N-(3-Chloro-4-fluorophenyl)-4-(5-(3-(2,3-dihydroxypropoxy)-1-methyl-1H-pyrazol-5-yl)-5-hydroxyoctahydropentalen-2-yl)-1-methyl-1H-imidazole-5-carboxamide], the EC50 is less than 10 nM.

`Cc1nc(C2CC3CC(=O)CC3C2)c(C(=O)Nc2ccc(F)c(Cl)c2)n1C` (centres unmarked) [Example 23, N-(3-Chloro-4-fluorophenyl)-1,2-dimethyl-4-(5-oxooctahydropentalen-2-yl)-1H-imidazole-5-carboxamide]: the half-maximal effective concentration (EC50) is less than 10 nM.

For `Cn1cnc(C2CC3CC(O)(c4cc(OCC(O)CO)nn4C)CC3C2)c1C(=O)Nc1ccc(F)c(Cl)c1` (centres unmarked) [Example 204, N-(3-Chloro-4-fluorophenyl)-4-(5-(3-(2,3-dihydroxypropoxy)-1-methyl-1H-pyrazol-5-yl)-5-hydroxyoctahydropentalen-2-yl)-1-methyl-1H-imidazole-5-carboxamide], the EC50 is less than 10 nM.

With `Cc1nc(C2CC3CC(O)(c4nccn4C)CC3C2)c(C(=O)Nc2ccc(F)c(Cl)c2)n1C` (single isomer, unassigned) [Example 27, N-(3-Chloro-4-fluorophenyl)-4-(5-hydroxy-5-(1-methyl-1H-imidazol-2-yl)octahydropentalen-2-yl)-1,2-dimethyl-1H-imidazole-5-carboxamide], the EC50 is less than 10 nM.

Take `Cn1cnc(C2CC3CC(=O)CC3C2)c1C(=O)Nc1ccc(F)c(Cl)c1` (single isomer, unassigned) [Example 1, N-(3-Chloro-4-fluorophenyl)-1-methyl-4-(5-oxooctahydropentalen-2-yl)-1H-imidazole-5-carboxamide]: the half-maximal effective concentration (EC50) was less than 10 nM.

Consider `CC(CO)Oc1cc(C2(O)CC3CC(c4ncn(C)c4C(=O)Nc4ccc(F)c(Cl)c4)CC3C2)n(C)n1` (single isomer, unassigned) [Example 68, N-(3-Chloro-4-fluorophenyl)-4-(5-hydroxy-5-(3-((1-hydroxypropan-2-yl)oxy)-1-methyl-1H-pyrazol-5-yl)octahydropentalen-2-yl)-1-methyl-1H-imidazole-5-carboxamide], for which the EC50 is less than 10 nM.

In the case of `Cn1cnc(C2CC3CC(O)(c4c(C(F)F)cnn4C)CC3C2)c1C(=O)Nc1ccc(F)c(Cl)c1` (centres unmarked) [Example 145, N-(3-Chloro-4-fluorophenyl)-4-(5-(4-(difluoromethyl)-1-methyl-1H-pyrazol-5-yl)-5-hydroxyoctahydropentalen-2-yl)-1-methyl-1H-imidazole-5-carboxamide], the half-maximal effective concentration (EC50) is less than 10 nM.

`Cn1cnc(-c2ccc(C3CCC(c4ncn(C)c4C(=O)Nc4ccc(F)c(Cl)c4)C3)cc2)c1` (centres unmarked) [Example 14, N-(3-Chloro-4-fluorophenyl)-1-methyl-4-(3-(4-(1-methyl-1H-imidazol-4-yl)phenyl)cyclopentyl)-1H-imidazole-5-carboxamide]: the concentration for a half-maximal effect (EC50) was less than 10 nM.

As for `CC(=O)NC(C)c1nn(C)cc1C1(O)CC2CC(c3ncn(C)c3C(=O)Nc3ccc(F)c(Cl)c3)CC2C1` (centres unmarked) [Example 185, 4-(5-(3-(1-Acetamidoethyl)-1-methyl-1H-pyrazol-4-yl)-5-hydroxyoctahydropentalen-2-yl)-N-(3-chloro-4-fluorophenyl)-1-methyl-1H-imidazole-5-carboxamide], the EC50 was less than 10 nM.

With `CC(C)n1cc(C2(O)CC3CC(c4ncn(C)c4C(=O)Nc4ccc(F)c(Cl)c4)CC3C2)c(C(F)(F)F)n1` (centres unmarked) [Example 157, N-(3-Chloro-4-fluorophenyl)-4-(5-hydroxy-5-(1-isopropyl-3-(trifluoromethyl)-1H-pyrazol-4-yl)octahydropentalen-2-yl)-1-methyl-1H-imidazole-5-carboxamide], the EC50 is less than 10 nM.

As to `CCOC(=O)CC1CC2CC(c3ncn(C)c3C(=O)Nc3ccc(F)c(Cl)c3)CC2C1` (centres unmarked) [Example 16, Ethyl 2-(5-(5-((3-chloro-4-fluorophenyl)carbamoyl)-1-methyl-1H-imidazol-4-yl)octahydropentalen-2-yl)acetate], the EC50 is less than 10 nM.

`Cn1cnc(C2CC3CC(N4CCOCC4)CC3C2)c1C(=O)Nc1ccc(F)c(Cl)c1` (centres unmarked) [Example 47, 5-[-5-(4-Morpholinyl)-1,2,3,3a,4,5,6,6a-octahydropentalen-2-yl]-N-(3-chloro-4-fluorophenyl)-3-methyl-4-imidazolecarboxamide]: the EC50 is 50 to 500 nM.

For `Cn1cnc(C2CC3CC(O)(Cn4ccc(O)n4)CC3C2)c1C(=O)Nc1ccc(F)c(Cl)c1` (centres unmarked) [Example 95, N-(3-chloro-4-fluorophenyl)-4-(5-hydroxy-5-((3-hydroxy-1H-pyrazol-1-yl)methyl)octahydropentalen-2-yl)-1-methyl-1H-imidazole-5-carboxamide], the concentration for a half-maximal effect (EC50) lay within 10 to 50 nM.

The experiment is the same for the next values; noted with them: viral load lowering, 5 days, qPCR of supernatant, read-out: VL HepAD38 EC50 range.
For the compound `CC(CO)Oc1cc(C2(O)CC3CC(c4ncn(C)c4C(=O)Nc4ccc(F)c(Cl)c4)CC3C2)n(C)n1` (single isomer, unassigned) [Example 69, N-(3-Chloro-4-fluorophenyl)-4-(5-hydroxy-5-(3-((1-hydroxypropan-2-yl)oxy)-1-methyl-1H-pyrazol-5-yl)octahydropentalen-2-yl)-1-methyl-1H-imidazole-5-carboxamide], the EC50 fell in the range of 10 to 50 nM.

Take `CC(O)c1cc(C2(O)CC3CC(c4ncn(C)c4C(=O)Nc4ccc(F)c(Cl)c4)CC3C2)n(C)n1` (centres unmarked) [Example 60, N-(3-Chloro-4-fluorophenyl)-4-(5-hydroxy-5-(3-(1-hydroxyethyl)-1-methyl-1H-pyrazol-5-yl)octahydropentalen-2-yl)-1-methyl-1H-imidazole-5-carboxamide]: the EC50 was less than 10 nM.

One may read the EC50 as the midpoint of the concentration-response curve.

The record behind these values is US12655130B2 (ASSEMBLY BIOSCIENCES, INC., priority 2020, dated 2026).
